Data from USRE38424E1 (The United States of America as represented by the …, priority 1994, dated 2004).

Excerpt: A total of 47 patients were included in this study. All patients had recurrent advanced stage epithelial ovarian cancer confirmed on histologic review at the Laboratory of Pathology, National Cancer Institute (NCI). Borderline, mixed, and germ cell histologies were excluded.
Pretreatment evaluation consisted of a physical examination, laboratory studies with CA-125, radiographic evaluation by CT scan, baseline electromyogram with nerve conduction velocity studies (EMG/NCV), creatinine clearance, chest radiograph, and EKG. On-study staging was completed within two weeks of starting therapy. Physical examination and laboratory evaluations were repeated with every cycle, except for CBC which was evaluated twice weekly. Patients underwent restaging every two cycles (i.e., every 6 weeks), which included the repetition of any radiographic studies that were abnormal upon entry. EMG/NCV studies were repeated as indicated to determine the presence of any progressive neurologic toxicity.
The G-CSF was supplied to the Division of Cancer Treatment by Amgen, Inc. (Thousand Oaks, Calif.). This G-CSF administration continued until the absolute granulocyte count of the patient was greater than 1500/μl for two consecutive days after the nadir (i.e., the total count for the two days was at least 3000/μl ) or until the total white blood cell count was greater than 30,000/μl. Patients with responding disease or stable disease continued on the study and were reevaluated at two cycle intervals.
Patients manifesting second or third degree heart block had remaining cycles given in the intensive care unit with appropriate interventions. Antiemetics were given as needed.
More specifically, this was undertaken by increasing the dose of G-CSF administered on the next treatment cycle.
The particulars pertaining to the flexible G-CSF dosage regimen are as follows. […] The dose of G-CSF was reduced by 5 μg/kg/day if severe bone pain occurred at these higher G-CSF dosage levels, i.e., at levels greater than or equal to 10 μg/kg/day.

[1] = female, human, in vivo, 1 cycle
[2] = female, human, in vivo, 21 days (per cycle)

Compound: CC(=O)O[C@H]1C(=O)[C@@]2(C)[C@H]([C@H](OC(=O)c3ccccc3)[C@]3(O)C[C@H](OC(=O)[C@H](O)[C@@H](NC(=O)c4ccccc4)c4ccccc4)C(C)=C1C3(C)C)[C@]1(OC(C)=O)CO[C@@H]1C[C@@H]2O [Taxol, taxol]
- Alopecia, Grade 1 & 2 (female, human, in vivo): 38 No. (%)
- Bone Pain, Grade 3 & 4 (female, human, in vivo): 3 (6) No. (%)
- Cardiac toxicity, Grade 1 & 2 (female, human, in vivo): 35 (74) No. (%)
- Constitutional toxicity, Grade 1 & 2 (female, human, in vivo): 43 No. (%)
- Constitutional toxicity, Grade 3 & 4 (female, human, in vivo): 4 (9) No. (%)
- Diarrhea, Grade 1 & 2 (female, human, in vivo): 29 No. (%)
- Diarrhea, Grade 3 & 4 (female, human, in vivo): 2 (4) No. (%)
- Hematologic toxicity, Anemia, Grade 1 & 2 (female, human, in vivo): 17 (47) No. (%)
- Hematologic toxicity, Anemia, Grade 3 & 4 (female, human, in vivo): 30 (47) No. (%)
- Hematologic toxicity, Granulocytes, Grade 1 & 2 (female, human, in vivo): 1 (2) No. (%)
- Hematologic toxicity, Granulocytes, Grade 3 & 4 (female, human, in vivo): 46 (98) No. (%)
- Hematologic toxicity, Platelets, Grade 1 & 2 (female, human, in vivo): 24 (51) No. (%)
- Hematologic toxicity, Platelets, Grade 3 & 4 (female, human, in vivo): 19 (40) No. (%)
- Hypersensitivity Reactions, Grade 1 & 2 (female, human, in vivo): 31 (66) No. (%)
- Hypersensitivity Reactions, Grade 3 & 4 (female, human, in vivo): 2 (4) No. (%)
- Median time of neutrophil nadir (female, human, in vivo): 7 days
- Mucositis, Grade 1 & 2 (female, human, in vivo): 31 (66) No. (%)
- Mucositis, Grade 3 & 4 (female, human, in vivo): 3 (6) No. (%)
- Myalgias, Grade 1 & 2 (female, human, in vivo): 43 No. (%)
- Neurologic toxicity, Grade 1 & 2 (female, human, in vivo): 36 (77) No. (%)
- Neurologic toxicity, Grade 3 & 4 (female, human, in vivo): 3 (6) No. (%)
- Patients who continued at the starting dosage combination throughout therapy (female, human, in vivo): 45%
- Patients who continued on that dose combination (female, human, in vivo): 12 patients
- Patients who required red blood cell transfusions (female, human, in vivo): 55%
- Patients with Mobitz I block (female, human, in vivo): 4%
- Patients with Mobitz II block (female, human, in vivo): 4%
- Patients with dose reduction for taxol-induced peripheral neuropathy (female, human, in vivo): 3 patients
- Patients with first degree atrioventricular block (female, human, in vivo): 4%
- Patients with grade 3 and 4 hematologic toxicities (female, human, in vivo): 98%
- Patients with mild ototoxicity (female, human, in vivo): 11%
- Patients with myalgias and arthralgias (grades 1 and 2) (female, human, in vivo): less than 50%
- Time of neutrophil nadir, range (female, human, in vivo): 5 to 11 days
- Vomiting, Grade 1 & 2 (female, human, in vivo): 23 No. (%)
- Median nadir heart rate [1]: 52 bpm
- Nadir heart rate, range [1]: 38-59 bpm
- Patients with asymptomatic sinus bradycardia [1]: 34%
- Cycles associated with neutropenia [2]: 24%
- Cycles complicated by fever and neutropenia [2]: 10%
- Episodes of complete heart block (in vivo): No episodes
- Patients with hypersensitivity reactions (in vivo): Two
- Patients with rapid atrial fibrillation requiring digitalization (in vivo): one
- Patients with supraventricular tachycardia (in vivo): two
- Treatment related death due to polymicrobial sepsis (one of 47 patients): 2%
